Experimental data as given in patent US9320276B2, “N-hetarylmethyl pyrazolylcarboxamides” (BAYER INTELLECTUAL PROPERTY GMBH, priority 2010, dated 2016).

Columns and labels:
Septoria tritici = assay: in vivo preventive test on Septoria tritici (wheat); details: 500 ppm of active ingredient, evaluated 21 days after inoculation
Protocol: (§1) Solvent: 49 parts by weight of N,N-dimethylacetamide Emulsifier: 1 part by weight of alkylaryl polyglycol ether To produce a suitable preparation of active compound, 1 part by weight of active compound or active compound combination is mixed with the stated amounts of solvent and emulsifier, and the concentrate is diluted with water to the desired concentration. To test for preventive activity, young plants are sprayed with the preparation of active compound or active compound combination at the stated rate of application. After the spray coating has been dried, the plants are sprayed with a spore suspension of Septoria tritici. The plants remain for 48 hours in an incubation cabinet at approximately 20° C. and a relative atmospheric humidity of approximately 100% and afterwards for 60 hours at approximately 15° C. in a translucent incubation cabinet at a relative atmospheric humidity of approximately 100%. The plants are placed in the greenhouse at a temperature of approximately 15° C. and a relative atmospheric humidity of approximately 80%. The test is evaluated 21 days after the inoculation. 0% means an efficacy which corresponds to that of the untreated control, while an efficacy of 100% means that no disease is observed.

Sphaerotheca fuliginea = assay: in vivo preventive test on Sphaerotheca fuliginea (cucumber); details: 500 ppm of active ingredient, evaluated 7 days after inoculation
Protocol: Solvent: 49 parts by weight of N,N-dimethylformamide Emulsifier: 1 part by weight of Alkylarylpolyglycolether To produce a suitable preparation of active compound, 1 part by weight of active compound is mixed with the stated amounts of solvent and emulsifier, and the concentrate is diluted with water to the desired concentration. To test for preventive activity, young plants are sprayed with the preparation of active compound at the stated rate of application. One day after this treatment, the plants are inoculated with an aqueous spore suspension of Sphaerotheca fuliginea. Then the plants are placed in a greenhouse at approximately 23° C. and a relative atmospheric humidity of approximately 70%. The test is evaluated 7 days after the inoculation. 0% means an efficacy which corresponds to that of the untreated control, while an efficacy of 100% means that no disease is observed.

[1] = logP by HPLC on reversed-phase column (EEC Directive 79/831 Annex V.A8); type: physicochemical; details: HPLC on reversed-phase column (C 18), 40° C., 0.1% aqueous formic acid and acetonitrile, linear gradient 10% to 90% acetonitrile
Summary of the method: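 Reversed-phase C18 HPLC at 40° C with 0.1% aqueous formic acid/acetonitrile, linear gradient 10% to 90% acetonitrile. LogP obtained from retention time by linear interpolation between successive unbranched alkan-2-ones (3 to 16 carbons) of known logP. Lambda-max taken from UV spectra at 200-400 nm at chromatographic peak maxima.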

Venturia inaequalis = assay: in vivo preventive test on Venturia inaequalis (apple scab); details: 100 ppm of active ingredient, evaluated 10 days after inoculation
Protocol: Solvent: 24.5 parts by weight of acetone • 24.5 parts by weight of N,N-dimethylacetamide Emulsifier: 1 part by weight of alkylaryl polyglycol ether To produce a suitable preparation of active compound, 1 part by weight of active compound is mixed with the stated amounts of solvent and emulsifier, and the concentrate is diluted with water to the desired concentration. To test for preventive activity, young plants are sprayed with the preparation of active compound at the stated rate of application. After the spray coating has dried on, the plants are inoculated with an aqueous conidia suspension of the causal agent of apple scab (Venturia inaequalis) and then remain for 1 day in an incubation cabinet at approximately 20° C. and a relative atmospheric humidity of 100%. The plants are then placed in a greenhouse at approximately 21° C. and a relative atmospheric humidity of approximately 90%. The test is evaluated 10 days after the inoculation. 0% means an efficacy which corresponds to that of the untreated control, while an efficacy of 100% means that no disease is observed.

Alternaria solani = assay: in vivo preventive test on Alternaria solani (tomato); details: 500 ppm of active ingredient, evaluated 7 days after inoculation
Protocol: Solvent: 49 parts by weight of N,N-dimethylformamide Emulsifier: 1 part by weight of Alkylarylpolyglycolether To produce a suitable preparation of active compound, 1 part by weight of active compound is mixed with the stated amounts of solvent and emulsifier, and the concentrate is diluted with water to the desired concentration. To test for preventive activity, young plants are sprayed with the preparation of active compound at the stated rate of application. One day after this treatment, the plants are inoculated with an aqueous spore suspension of Alternaria solani. The plants remain for one day in an incubation cabinet at approximately 22° C. and a relative atmospheric humidity of 100%. Then the plants are placed in an incubation cabinet at approximately 20° C. and a relative atmospheric humidity of 96%. The test is evaluated 7 days after the inoculation. 0% means an efficacy which corresponds to that of the untreated control while an efficacy of 100% means that no disease is observed.

Leptosphaeria nodorum = assay: in vivo preventive test on Leptosphaeria nodorum (wheat); details: 500 ppm of active ingredient, evaluated 7-9 days after inoculation
Protocol: Solvent: 49 parts by weight of N,N-dimethylacetamide Emulsifier: 1 part by weight of alkylaryl polyglycol ether To produce a suitable preparation of active compound, 1 part by weight of active compound is mixed with the stated amounts of solvent and emulsifier, and the concentrate is diluted with water to the desired concentration. To test for preventive activity, young plants are sprayed with a preparation of active compound at the stated rate of application. One day after this treatment, the plants are inoculated with an aqueous spore suspension of Leptosphaeria nodorum. The plants remain for 48 hours in an incubation cabinet at 22° C. and a relative atmospheric humidity of 100%. Then the plants are placed in a greenhouse at a temperature of approximately 22° C. and a relative atmospheric humidity of approximately 90%. The test is evaluated 7-9 days after the inoculation. 0% means an efficacy which corresponds to that of the untreated control, while an efficacy of 100% means that no disease is observed.

[2] = system: Fusarium nivale (var. majus); assay: in vivo curative test on Fusarium nivale (wheat); details: 500 ppm of active ingredient, evaluated 5 days after inoculation
Protocol: Solvent: 49 parts by weight of N,N-dimethylacetamide Emulsifier: 1 part by weight of alkylaryl polyglycol ether To produce a suitable preparation of active compound, 1 part by weight of active compound or active compound combination is mixed with the stated amounts of solvent and emulsifier, and the concentrate is diluted with water to the desired concentration. To test for curative activity, young plants are slightly injured by using a sandblast and afterwards they are sprayed with a conidia suspension of Fusarium nivale (var. majus) and placed for 24 hours in a greenhouse under a translucent incubation cabinet at a temperature of approximately 10° C. and a relative atmospheric humidity of approximately 100% and are subsequently sprayed with the preparation of active compound at the stated rate of application. After the spray coating has been dried, the plants remain in the greenhouse under translucent incubation cloches at a temperature of approximately 10° C. and a relative atmospheric humidity of approximately 100%. The test is evaluated 5 days after the inoculation. 0% means an efficacy which corresponds to that of the untreated control, while an efficacy of 100% means that no disease is observed.

Pyrenophora teres = assay: in vivo preventive test on Pyrenophora teres (barley); details: 500 ppm of active ingredient, evaluated 7-9 days after inoculation
Summary of the method: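 Young barley plants sprayed with compound in DMF/alkylaryl polyglycol ether emulsion; inoculated with P. teres spores one day later. 48 h at 22 °C, 100% humidity, then greenhouse ~20 °C, ~80% humidity; efficacy scored 7-9 days post-inoculation, 0% = untreated, 100% = no disease.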

[3] = system: Blumeria graminis fsp. hordei; assay: in vivo preventive test on Blumeria graminis (barley); details: 500 ppm of active ingredient, evaluated 7 days after inoculation
Protocol: Solvent: 49 parts by weight of N,N-dimethylacetamide Emulsifier: 1 part by weight of alkylaryl polyglycol ether To produce a suitable preparation of active compound, 1 part by weight of active compound or active compound combination is mixed with the stated amounts of solvent and emulsifier, and the concentrate is diluted with water to the desired concentration. To test for preventive activity, young plants are sprayed with the preparation of active compound or active compound combination at the stated rate of application. After the spray coating has been dried, the plants are dusted with spores of Blumeria graminis fsp. hordei. The plants are placed in the greenhouse at a temperature of approximately 18° C. and a relative atmospheric humidity of approximately 80% to promote the development of mildew pustules. The test is evaluated 7 days after the inoculation. 0% means an efficacy which corresponds to that of the untreated control, while an efficacy of 100% means that no disease is observed.

Puccinia triticina = assay: in vivo protective test on Puccinia triticina (wheat); details: 500 ppm of active ingredient, preventive, evaluated 8 days after inoculation
Protocol: as §1, with “Puccinia triticina.” for “Septoria tritici.”, “approximately” for “approximately 100% and afterwards for 60 hours at approximately 15° C. in a translucent incubation cabinet at a relative atmospheric humidity of approximately”, “20°” for “15°”, “8” for “21”

logP [1]	Structure (SMILES)	Efficacy (Septoria tritici) [%]	Efficacy (Sphaerotheca fuliginea) [%]	Efficacy (Venturia inaequalis) [%]	Efficacy (Alternaria solani) [%]	Efficacy (Leptosphaeria nodorum) [%]	Efficacy [2] [%]	Efficacy (Pyrenophora teres) [%]	Efficacy [3] [%]	Efficacy (Puccinia triticina) [%]
3.60	CC(c1csc2ccccc12)N(C(=O)c1c(C(F)F)nn(C)c1F)C1CC1 (racemic) [Example 85]	90	94	100	80	100	100	100	100	
2.88	Cc1ccsc1CN(C(=O)c1c(C(F)F)nn(C)c1F)C1CC1 [Example 40]	100	90		95		92	100	100	71
3.27	Cn1nc(C(F)F)c(C(=O)N(Cc2csc3ccccc23)C2CC2)c1F [Example 90]	100			95	100	100	100	100	88
3.19	Cn1nc(C(F)F)c(C(=O)N(Cc2cccc3ccsc23)C2CC2)c1F [Example 93]	100			100		71	100	94	100
3.64	Cc1c(CN(C(=O)c2c(C(F)F)nn(C)c2F)C2CC2)sc2ccccc12 [Example 122]	100			95	100	93	100		100
4.04	Cc1nn(-c2ccccc2)nc1CN(C(=S)c1c(C(F)F)nn(C)c1F)C1CC1 [Example 132]		100	98	90			100		
3.96	Cn1nc(C(F)F)c(C(=O)N(Cc2cc3ccccc3n2-c2ccccc2)C2CC2)c1F [Example 155]	100			95	80	100	100	70	75
